Source: patent US20220340597A1, “HEXAHYDRO-1H-PYRAZINO[1,2-A]PYRAZINE COMPOUNDS FOR THE TREATMENT OF AUTOIMMUNE DISEASE” (Hoffmann-La Roche Inc., priority 2019, published 2022)
pIC50: −log10 of the molar value.

Columns and labels:
[1] = biological target: T1, human TLR8 (Homo sapiens, UniProt Q9NR97); assay: HEK293-Blue-hTLR-8 cells assay
T1 sequence (Q9NR97 27-1041): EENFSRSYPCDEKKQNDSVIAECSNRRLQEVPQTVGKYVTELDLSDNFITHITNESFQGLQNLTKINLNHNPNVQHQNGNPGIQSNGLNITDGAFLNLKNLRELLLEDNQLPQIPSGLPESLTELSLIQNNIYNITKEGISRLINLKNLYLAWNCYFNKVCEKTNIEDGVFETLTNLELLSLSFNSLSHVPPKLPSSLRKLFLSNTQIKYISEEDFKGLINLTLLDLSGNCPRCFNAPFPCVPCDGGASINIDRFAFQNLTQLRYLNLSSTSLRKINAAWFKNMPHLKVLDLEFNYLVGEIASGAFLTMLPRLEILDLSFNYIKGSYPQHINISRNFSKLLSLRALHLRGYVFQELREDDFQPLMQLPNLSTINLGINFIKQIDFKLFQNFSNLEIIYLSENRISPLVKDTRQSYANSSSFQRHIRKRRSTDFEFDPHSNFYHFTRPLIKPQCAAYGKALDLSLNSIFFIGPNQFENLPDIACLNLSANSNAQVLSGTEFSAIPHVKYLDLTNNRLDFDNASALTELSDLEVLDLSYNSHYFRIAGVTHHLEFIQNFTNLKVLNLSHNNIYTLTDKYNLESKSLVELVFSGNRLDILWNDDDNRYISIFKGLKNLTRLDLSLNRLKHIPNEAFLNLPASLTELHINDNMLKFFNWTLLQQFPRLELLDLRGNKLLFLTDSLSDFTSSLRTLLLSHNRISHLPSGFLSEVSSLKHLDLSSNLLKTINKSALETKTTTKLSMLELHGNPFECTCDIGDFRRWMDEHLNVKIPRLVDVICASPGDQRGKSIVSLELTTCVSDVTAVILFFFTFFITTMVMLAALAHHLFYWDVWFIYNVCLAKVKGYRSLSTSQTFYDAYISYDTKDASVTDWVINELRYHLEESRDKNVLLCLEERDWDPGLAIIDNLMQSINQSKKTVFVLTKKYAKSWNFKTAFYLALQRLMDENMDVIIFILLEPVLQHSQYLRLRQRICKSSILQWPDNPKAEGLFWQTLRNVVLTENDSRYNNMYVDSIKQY
From the text: HEK293-Blue-hTLR-8 Cells Assay:
A stable HEK293-Blue-hTLR-8 cell line was purchased from InvivoGen (Cat. #: hkb-htlr8, San Diego, Calif., USA). These cells were originally designed for studying the stimulation of human TLR8 by monitoring the activation of NF-κB. A SEAP (secreted embryonic alkaline phosphatase) reporter gene was placed under the control of the IFN-β minimal promoter fused to five NF-κB and AP-1-binding sites. The SEAP was induced by activating NF-κB and AP-1 via stimulating HEK-Blue hTLR8 cells with TLR8 ligands. Therefore, the reporter expression was declined by TLR8 antagonist under the stimulation of a ligand, such as R848, for incubation of 20 hrs. The cell culture supernatant SEAP reporter activity was determined using QUANTI-Blue™ kit (Cat. #: rep-qb1, Invivogen, San Diego, Calif., USA) at a wavelength of 640 nm, a detection medium that turns purple or blue in the presence of alkaline phosphatase.

[2] = biological target: T2, human TLR7 (Homo sapiens, UniProt Q9NYK1); assay: HEK293-Blue-hTLR-7 cells assay; format: cell-based; settings: HEK293-Blue-hTLR7 cells, R848 stimulation, 20 hrs, SEAP reporter; read-out: HEK/hTLR7 IC50
T2 construct: host or cells: HEK293 (HEK-Blue hTLR7)
T2 sequence (Q9NYK1 27-1049): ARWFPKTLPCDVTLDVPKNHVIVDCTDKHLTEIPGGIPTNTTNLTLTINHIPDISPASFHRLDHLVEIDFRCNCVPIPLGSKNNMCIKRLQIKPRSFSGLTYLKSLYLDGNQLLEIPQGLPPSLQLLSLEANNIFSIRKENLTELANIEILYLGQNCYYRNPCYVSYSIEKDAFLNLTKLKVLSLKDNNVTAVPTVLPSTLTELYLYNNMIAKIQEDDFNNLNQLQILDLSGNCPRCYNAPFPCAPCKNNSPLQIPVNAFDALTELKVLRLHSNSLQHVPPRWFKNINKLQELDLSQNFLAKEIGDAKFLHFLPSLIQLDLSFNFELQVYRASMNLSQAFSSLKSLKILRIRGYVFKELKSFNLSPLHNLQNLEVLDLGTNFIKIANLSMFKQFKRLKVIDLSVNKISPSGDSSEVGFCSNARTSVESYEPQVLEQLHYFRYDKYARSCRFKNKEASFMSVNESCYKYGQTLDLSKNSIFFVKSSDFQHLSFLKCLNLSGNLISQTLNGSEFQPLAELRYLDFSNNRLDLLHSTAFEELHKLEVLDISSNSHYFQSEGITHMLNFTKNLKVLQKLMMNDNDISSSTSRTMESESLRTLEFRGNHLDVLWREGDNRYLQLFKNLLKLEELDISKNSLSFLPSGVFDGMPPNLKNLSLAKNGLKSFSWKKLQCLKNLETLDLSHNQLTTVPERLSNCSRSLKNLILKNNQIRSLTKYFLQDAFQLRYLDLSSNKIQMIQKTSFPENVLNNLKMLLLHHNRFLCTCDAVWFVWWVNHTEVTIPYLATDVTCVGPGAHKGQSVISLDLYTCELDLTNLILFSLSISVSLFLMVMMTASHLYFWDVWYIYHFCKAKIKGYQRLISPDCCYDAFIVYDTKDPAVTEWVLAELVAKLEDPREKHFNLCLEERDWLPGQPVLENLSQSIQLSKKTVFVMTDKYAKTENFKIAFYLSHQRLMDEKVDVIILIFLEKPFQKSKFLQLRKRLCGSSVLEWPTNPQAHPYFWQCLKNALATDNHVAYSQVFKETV
Procedure: The following tests were carried out in order to determine the activity of the compounds of formula (I) and (Ia) in HEK293-Blue-hTLR-7/8/9 cells assay.
HEK293-Blue-hTLR-7 cells assay:
A stable HEK293-Blue-hTLR-7 cell line was purchased from InvivoGen (Cat. #: hkb-htlr7, San Diego, Calif., USA). These cells were originally designed for studying the stimulation of human TLR7 by monitoring the activation of NF-κB. A SEAP (secreted embryonic alkaline phosphatase) reporter gene was placed under the control of the […] minimal promoter fused to five NF-κB and AP-1-binding sites. The SEAP was induced by activating NF-κB and AP-1 via stimulating HEK-Blue hTLR7 cells with TLR7 ligands. Therefore, the reporter expression was declined by TLR7 antagonist under the stimulation of a ligand, such as R848 (Resiquimod), for incubation of 20 hrs. The cell culture supernatant SEAP reporter activity was determined using QUANTI-Blue™ kit (Cat. #: rep-qb1, Invivogen, San Diego, Calif., USA) at a wavelength of 640 nm, a detection medium that turns purple or blue in the presence of alkaline phosphatase.
Then 20 μL of the supernatant from each well was incubated with […] Quanti-blue substrate solution at 37° C. for 2 hrs and the absorbance was read at 620-655 nm using a spectrophotometer. The signaling pathway that TLR7 activation leads to downstream NF-κB activation has been widely accepted, and therefore similar reporter assay was modified for evaluating TLR7 antagonist.

SMILES | pIC50 [1] | pIC50 [2]
C[C@@H]1CN(c2ccc(C#N)c3ncccc23)C[C@@H]2CN(c3nccc(N4CC(N)C4)n3)CCN21 [Example 39, 5-[(4R,9aR)-8-[4-(3-aminoazetidin-1-yl)pyrimidin-2-yl]-4-methyl-3,4,6,7,9,9a-hexahydro-1H-pyrazino[1,2-a]pyrazin-2-yl]quinoline-8-carbonitrile] | 7.77 | 7.68
C[C@@H]1CN(c2ccc(C#N)c3ncccc23)C[C@@H]2CN(c3ccnc(N4C[C@@H](F)[C@@H](N)C4)c3)CCN21 [Example 40, 5-[(4R,9aS)-8-[2-[(3S,4R)-3-amino-4-fluoro-pyrrolidin-1-yl]-4-pyridyl]-4-methyl-3,4,6,7,9,9a-hexahydro-1H-pyrazino[1,2-a]pyrazin-2-yl]quinoline-8-carbonitrile] | 8.15 | 8.15
C[C@@H]1CN(c2ccc(C#N)c3ncccc23)C[C@@H]2CN(c3ccnc(N4CC(N)C4)c3)CCN21 [Example 41, 5-[(4R,9aS)-8-[2-(3-aminoazetidin-1-yl)-4-pyridyl]-4-methyl-3,4,6,7,9,9a-hexahydro-1H-pyrazino[1,2-a]pyrazin-2-yl]quinoline-8-carbonitrile] | 8.15 | 7.46
Cc1cnc(N2CCN3[C@@H](C2)CN(c2ccc(C#N)c4ncccc24)C[C@H]3C)nc1N1CCNCC1 [Example 43, 5-[(4R,9aR)-4-methyl-8-(5-methyl-4-piperazin-1-yl-pyrimidin-2-yl)-3,4,6,7,9,9a-hexahydro-1H-pyrazino[1,2-a]pyrazin-2-yl]quinoline-8-carbonitrile] | 7.89 | 8.05
CO[C@@H]1CN(c2nc(C)cc(N3CCN4[C@@H](C3)CN(c3ccc(C#N)c5ncccc35)C[C@H]4C)n2)C[C@H]1N [Example 45, 5-[(4R,9aR)-8-[2-[(3R,4R)-3-amino-4-methoxy-pyrrolidin-1-yl]-6-methyl-pyrimidin-4-yl]-4-methyl-3,4,6,7,9,9a-hexahydro-1H-pyrazino[1,2-a]pyrazin-2-yl]quinoline-8-carbonitrile] | 7.55 | 7.74
Cc1cc(N2CCOC[C@H](N)C2)ncc1N1CCN2CCN(c3ccc(C#N)c4ncccc34)CC2C1 (stereo partly drawn) [Example 46, 5-[2-[6-[(6R)-6-amino-1,4-oxazepan-4-yl]-4-methyl-3-pyridyl]-3,4,6,7,9,9a-hexahydro-1H-pyrazino[1,2-a]pyrazin-8-yl]quinoline-8-carbonitrile] | 7.89 | 7.85
C[C@@H]1CN(c2ccc(C#N)c3ncccc23)C[C@@H]2CN(c3ccnc(N4CCOC[C@@H](N)C4)c3)CCN21 [Example 53, 5-[(4R,9aS)-8-[2-[(6S)-6-amino-1,4-oxazepan-4-yl]-4-pyridyl]-4-methyl-3,4,6,7,9,9a-hexahydro-1H-pyrazino[1,2-a]pyrazin-2-yl]quinoline-8-carbonitrile] | 7.70 | 7.89
C[C@@H]1CN(c2ccc(C#N)c3ncccc23)C[C@@H]2CN(c3ccnc(N4CCOC[C@H](N)C4)c3)CCN21 [Example 54, 5-[(4R,9aS)-8-[2-[(6R)-6-amino-1,4-oxazepan-4-yl]-4-pyridyl]-4-methyl-3,4,6,7,9,9a-hexahydro-1H-pyrazino[1,2-a]pyrazin-2-yl]quinoline-8-carbonitrile] | 7.59 | 7.64
Cc1cc(N2CCN3[C@@H](C2)CN(c2ccc(C#N)c4ncccc24)C[C@H]3C)nc(N2CC(C)(N)C2)n1 [Example 55, 5-[(4R,9aR)-8-[2-(3-amino-3-methyl-azetidin-1-yl)-6-methyl-pyrimidin-4-yl]-4-methyl-3,4,6,7,9,9a-hexahydro-1H-pyrazino[1,2-a]pyrazin-2-yl]quinoline-8-carbonitrile] | 7.40 | 7.82
C[C@@H]1CN(c2ccc(C#N)c3ncccc23)C[C@@H]2CN(c3ccnc(N4CC(C)(N)C4)c3)CCN21 [Example 56, 5-[(4R,9aS)-8-[2-(3-amino-3-methyl-azetidin-1-yl)-4-pyridyl]-4-methyl-3,4,6,7,9,9a-hexahydro-1H-pyrazino[1,2-a]pyrazin-2-yl]quinoline-8-carbonitrile] | 8.10 | 7.89
C[C@@H]1CN(c2ccc(C#N)c3ncccc23)C[C@@H]2CN(Cc3cncc(N4CCNCC4)c3)CCN21 [Example 57, 5-[(4R,9aS)-4-methyl-8-[(5-piperazin-1-yl-3-pyridyl)methyl]-3,4,6,7,9,9a-hexahydro-1H-pyrazino[1,2-a]pyrazin-2-yl]quinoline-8-carbonitrile] | 7.66 | 7.64
C[C@@H]1CN(c2cccc(CCN3CCN4[C@@H](C3)CN(c3ccc(C#N)c5ncccc35)C[C@H]4C)n2)CCN1 [Example 58, 5-[(4R,9aS)-4-methyl-8-[2-[6-[(3R)-3-methylpiperazin-1-yl]-2-pyridyl]ethyl]-3,4,6,7,9,9a-hexahydro-JH-pyrazino[1,2-a]pyrazin-2-yl]quinoline-8-carbonitrile] | 7.40 | 7.70
C[C@@H]1CN(c2ccc(C#N)c3ncccc23)C[C@@H]2CN(CCc3ccc(N4CC5(CNCCO5)C4)nc3)CCN21 [Example 59, 5-[(4R,9aS)-4-methyl-8-[2-[6-(5-oxa-2,8-diazaspiro[3.5]nonan-2-yl)-3-pyridyl]ethyl]-3,4,6,7,9,9a-hexahydro-1H-pyrazino[1,2-a]pyrazin-2-yl]quinoline-8-carbonitrile] | 7.55 | 8.05
Cc1nc(N2CCNCC2)ccc1CN1CCN2[C@@H](C1)CN(c1ccc(C#N)c3ncccc13)C[C@H]2C [Example 60, 5-[(4R,9aS)-4-methyl-8-[(2-methyl-6-piperazin-1-yl-3-pyridyl)methyl]-3,4,6,7,9,9a-hexahydro-1H-pyrazino[1,2-a]pyrazin-2-yl]quinoline-8-carbonitrile] | 7.85 | 8.10
